Values of other authors in patent US20100143471A1, “NOVEL REDUCED DOSE PHARMACEUTICAL COMPOSITIONS OF FE[…] PSEUDOEPHEDRINE” (LUPIN LIMITED, priority 2007, published 2010).
Where a name gives a salt, the structure may show the parent alone.

System: seasonal allergic rhinitis symptoms
Settings: children aged 6-11 years

Structure (SMILES) | reduction of seasonal allergic rhinitis symptoms (30 mg bid) | safety and sedation (doses of up to 60 mg bid)
CC(C)(C(=O)O)c1ccc(C(O)CCCN2CCC(C(O)(c3ccccc3)c3ccccc3)CC2)cc1 (centres unmarked) [fexofenadine HCl] | effectively reduces all seasonal allergic rhinitis symptoms | –
CC(C)(C(=O)O)c1ccc(C(O)CCCN2CCC(C(O)(c3ccccc3)c3ccccc3)CC2)cc1 (centres unmarked) [fexofenadine] | – | safe and nonsedating
